From US11590117B2, “Treatment of a hematologic malignancy with 2-(4-chlorophenyl)-n-((2-(2,6-dioxopiperidin-3-yl)-1-oxoisoindolin-5-yl)methyl)-2,2-difluoroacetamide” (priority 2016, dated 2023)

Legend:
[1] = type: physicochemical
Excerpt: In certain embodiments, the compound for use in the methods is an anhydrous Form C of 2-(4-chlorophenyl)-N-((2-(2,6-dioxopiperidin-3-yl)-1-oxoisoindolin-5-yl)methyl)-2,2-difluoroacetamide.
In certain embodiments, Form C is obtained by slurrying 2-(4-chlorophenyl)-N-((2-(2,6-dioxopiperidin-3-yl)-1-oxoisoindolin-5-yl)methyl)-2,2-difluoroacetamide in certain solvent systems, for example, solvent systems comprising one or more of the following solvents: acetonitril/water, acetone, or ethanol/water for extended period of time.

[2] = Dynamic vapor sorption (DVS) analysis; type: physicochemical; settings: relative humidity increased from about 0% to about 90% RH
Protocol: In certain embodiments, Form A is characterized by dynamic vapor sorption analysis. […] In certain embodiments, Form A comprises less than 0.1% water as determined in a coulometric Karl Fischer (KF) titrator equipped with an oven sample processor set at 225° C.
In certain embodiments, Form B is characterized by dynamic vapor sorption analysis. […] In certain embodiments, Form B comprises less than 0.1% water as determined in a coulometric Karl Fischer (KF) titrator equipped with an oven sample processor set at 225° C.
In certain embodiments, Form C is characterized by dynamic vapor sorption analysis. […] In certain embodiments, Form C comprises less than 0.1% water as determined in a coulometric Karl Fischer (KF) titrator equipped with an oven sample processor set at 225° C.

HL-60 human AML cells = test: HL-60 IV AML xenograft model, survival study; type: in vivo, SCID mice; settings: positive control; p<0.05 vs vehicle
Protocol: In this study, Compound 1 antitumor activity in the HL-60 IV AML xenograft model was studies. In this model, HL-60 human AML cells engraft in host BM and internal organs (eg, spleen, liver) and animals develop progressive peripheral leukocytosis. Female severe combined immunodeficiency (SCID) mice were inoculated with HL-60 cells by tail vein injection. To understand the effect of Compound 1 on the xenografted HL-60 cells, animals were dosed intraperitoneal (IP) with vehicle or Compound 1 (0.5, 1, 2.5, and 5 mg/kg) once daily (QD)×5 between Weeks 3 and 4 post-engraftment (AP6516, survival study) or animals were dosed IP twice daily (BID) with vehicle or Compound 1 for 5 or 10 consecutive days (5 mg/kg BID×5 or 2.5 mg/kg, BID×10) between Weeks 6 and 8 post-engraftment (Study AP6982, % human CD33+[hCD33+] cells in BM).
Tumor burden from the peripheral blood of HL-60-bearing animals was assessed by fluorescence-activated cell sorting (FACS) at Week 7 post-tumor cell inoculation. […] Mice from the vehicle control and Compound 1 treatment groups succumbed to disease burden starting on Day 54 for the vehicle control group and between Day 51 and Day 57 for the Compound 1 treatment groups. […] One mouse (1/8) from the 2.5 mg/kg Compound 1-treated group survived to study termination on Day 162.

Compound	thermodynamic stability among the crystal forms [1]	water uptake (DVS) [2]	median survival (HL-60 human AML cells) [days]
O=C1CCC(N2Cc3cc(CNC(=O)C(F)(F)c4ccc(Cl)cc4)ccc3C2=O)C(=O)N1 (centres unmarked) [Form C, 2-(4-chlorophenyl)-N-((2-(2,6-dioxopiperidin-3-yl)-1-oxoisoindolin-5-yl)methyl)-2,2-difluoroacetamide]	most thermodynamically stable anhydrate	about 0.6 % w/w	–
O=C1CCC(N2Cc3cc(CNC(=O)C(F)(F)c4ccc(Cl)cc4)ccc3C2=O)C(=O)N1 (centres unmarked) [Form B, 2-(4-chlorophenyl)-N-((2-(2,6-dioxopiperidin-3-yl)-1-oxoisoindolin-5-yl)methyl)-2,2-difluoroacetamide]	–	about 1.4 % w/w	–
Nc1nc(F)nc2c1ncn2[C@@H]1O[C@H](CO)[C@@H](O)[C@@H]1O [fludarabine, reference compound]	–	–	76
O=C1CCC(N2Cc3cc(CNC(=O)C(F)(F)c4ccc(Cl)cc4)ccc3C2=O)C(=O)N1 (centres unmarked) [Form A, 2-(4-chlorophenyl)-N-((2-(2,6-dioxopiperidin-3-yl)-1-oxoisoindolin-5-yl)methyl)-2,2-difluoroacetamide]	–	about 1.2 % w/w	–
